“Also recorded” adds a separate entry of the source.
Tested on: PDE11A4/CyaB1-chimera
Assay: Adenylate cyclase activity assay of PDE11A4/CyaB1-chimera (conversion of [α-32P]-ATP to cAMP)
Type: biochemical, human

- % basal value (1 mM of cyclic nucleotide, relative to basal enzyme activity): 400%
SMILES: Nc1nc2c(ncn2[C@@H]2O[C@@H]3COP(=O)(O)O[C@H]3[C@H]2O)c(=O)[nH]1 [cGMP]
- Classification as PDE11A4-GAF agonist / antagonist (from dose-effect curve, FIG. 5): PDE11A4-GAF agonist; also recorded: selectively activates the GAF domain of PDE11 as agonist
